# Source: patent US20040219175A1, “Thermogelling emulsions for sustained release of bioactive substances” (Industrial Technology Research Institute, priority 2002, published 2004)
# Tested on: hepatitis B virus
# Test: Anti-viral effect on hepatitis B virus in SCID mice injected with patient serum, plasma HBsAg by ELISA
# Assay type: in vivo
# Description: The serum of the patient infected with hepatitis B virus was collected and injected into the SCID mice. Interferon-alpha, Interferon-alpha-containing emulsions and untreated groups of mice were divided to evaluate antiviral bioactivity of inteferon. Different formulations were administered at the interferon-alpha dose of 1000 units/g body weight of mice. Three days later, blood was collected and the concentrations of hepatitis B virus surface antigen (HBsAg) in plasma were determined by ELISA method.
substance,measurement,setting,value
Interferon-alpha,anti-viral effect compared to the untreated control,p<0.05,statistically significant anti-viral effect
same,relative HBsAg ratio to the untreated control,"plasma, three days after 1000 units/g body weight, untreated defined as 1.0",0.29±0.4
